Literature values as cited in US20140030241A1 (NESTEC S.A., priority 2011, published 2014).

What was measured:
[1] = test system: IgG and IgM response; conditions: rodents
[2] = test system: Candida albicans; conditions: rodents on nucleotide free diet, Candida albicans challenge
[3] = enters circulation without being metabolized by the liver
[4] = test system: Splenic lymphocytes; conditions: rodents on nucleotide free diets, additions to the diet

Compound | IgG response [1] | survival time [2] | other results
Nc1ncnc2c1ncn2[C@@H]1O[C@H](COP(=O)(O)O)[C@@H](O)[C@H]1O [AMP, 5-Adenosine Monophosphate] | increased IgG response |  | 
Nc1nc2c(ncn2[C@@H]2O[C@H](COP(=O)(O)O)[C@@H](O)[C@H]2O)c(=O)[nH]1 [GMP, 5′-Guanosine Monophosphate] | increased IgG response |  | IgM response [1]: increase IgM response
O=c1ccn([C@@H]2O[C@H](COP(=O)(O)O)[C@@H](O)[C@H]2O)c(=O)[nH]1 [UMP, 5′-Uracil Monophosphate] | increased IgG response |  | 
Nc1ncnc2nc[nH]c12 [adenine] |  | not | 
NC(=O)NCCC[C@H](N)C(=O)O [citrulline] |  |  | conversion to arginine in the kidneys [3]: almost complete
O=c1cc[nH]c(=O)[nH]1 [uracil] |  | increase survival time | suppressed cell-mediated immune responses (proliferation to mitogens, IL-2 production, IL-2 receptor and Lyt-1 markers, delayed cutaneous hypersensitivity) [4]: largely reversed
